Test results: the NIST ThermoML archive (doi:10.1016/j.fluid.2006.03.015)

Experiment: molar heat capacity at constant pressure
Settings: 101.33 kPa, Liquid

CCCCn1cc[n+](C)c1.O=S(=O)([O-])C(F)(F)F [1-butyl-3-methylimidazolium trifluoromethanesulfonate]
Settings | molar heat capacity at constant pressure [J/K/mol]
313.16 K, Large sample (1 g) DSC | 448
315.15 K, Small sample (50 mg) DSC | 449
318.15 K, Large sample (1 g) DSC | 449
320.15 K, Small sample (50 mg) DSC | 451
323.14 K, Large sample (1 g) DSC | 451
325.15 K, Small sample (50 mg) DSC | 452
328.12 K, Large sample (1 g) DSC | 451
328.15 K, modulated-temperature differential scanning calorimetry MDSC | 443
330.15 K, Small sample (50 mg) DSC | 454
333.15 K, modulated-temperature differential scanning calorimetry MDSC | 446
333.17 K, Large sample (1 g) DSC | 450
335.15 K, Small sample (50 mg) DSC | 457
338.15 K, Large sample (1 g) DSC | 453
338.15 K, modulated-temperature differential scanning calorimetry MDSC | 448
340.15 K, Small sample (50 mg) DSC | 460
343.14 K, Large sample (1 g) DSC | 455
343.15 K, modulated-temperature differential scanning calorimetry MDSC | 450
345.15 K, Small sample (50 mg) DSC | 462
348.15 K, modulated-temperature differential scanning calorimetry MDSC | 453
348.18 K, Large sample (1 g) DSC | 456
350.15 K, Small sample (50 mg) DSC | 465
353.15 K, modulated-temperature differential scanning calorimetry MDSC | 454
353.18 K, Large sample (1 g) DSC | 459
355.15 K, Small sample (50 mg) DSC | 468
358.13 K, Large sample (1 g) DSC | 463
358.15 K, modulated-temperature differential scanning calorimetry MDSC | 458
360.15 K, Small sample (50 mg) DSC | 470
363.14 K, Large sample (1 g) DSC | 467
363.15 K, modulated-temperature differential scanning calorimetry MDSC | 460
365.15 K, Small sample (50 mg) DSC | 473
368.14 K, Large sample (1 g) DSC | 471
368.15 K, modulated-temperature differential scanning calorimetry MDSC | 463
370.15 K, Small sample (50 mg) DSC | 476
373.13 K, Large sample (1 g) DSC | 472
373.15 K, modulated-temperature differential scanning calorimetry MDSC | 464
375.15 K, Small sample (50 mg) DSC | 479
378.12 K, Large sample (1 g) DSC | 474
378.15 K, modulated-temperature differential scanning calorimetry MDSC | 468
380.15 K, Small sample (50 mg) DSC | 481
383.15 K, modulated-temperature differential scanning calorimetry MDSC | 468
383.16 K, Large sample (1 g) DSC | 477
385.15 K, Small sample (50 mg) DSC | 484
388.15 K, Large sample (1 g) DSC | 479
388.15 K, modulated-temperature differential scanning calorimetry MDSC | 471
390.15 K, Small sample (50 mg) DSC | 487
393.13 K, Large sample (1 g) DSC | 482
393.15 K, modulated-temperature differential scanning calorimetry MDSC | 472
395.15 K, Small sample (50 mg) DSC | 489
398.15 K, modulated-temperature differential scanning calorimetry MDSC | 475
398.16 K, Large sample (1 g) DSC | 484
400.15 K, Small sample (50 mg) DSC | 492
403.14 K, Large sample (1 g) DSC | 487
403.15 K, modulated-temperature differential scanning calorimetry MDSC | 476
405.15 K, Small sample (50 mg) DSC | 495
408.15 K, modulated-temperature differential scanning calorimetry MDSC | 477
408.17 K, Large sample (1 g) DSC | 489
410.15 K, Small sample (50 mg) DSC | 498
413.14 K, Large sample (1 g) DSC | 491
413.15 K, modulated-temperature differential scanning calorimetry MDSC | 481
415.15 K, Small sample (50 mg) DSC | 500
418.17 K, Large sample (1 g) DSC | 494
420.15 K, Small sample (50 mg) DSC | 503
423.14 K, Large sample (1 g) DSC | 494
425.15 K, Small sample (50 mg) DSC | 506
